Assay [1] deals with human. Kind of assay: Sensory evaluation of salty taste enhancing activity of compound of the present invention in human. The note with it: n=5; for salty taste enhancing rate (fold) middle and after taste: after 2 seconds; for salty taste enhancing rate (fold) initial taste: first 2 seconds. In kind it is in vivo. As for the experimental part:
The intensity of a salty taste enhancing activity and the strength of a bitter taste were examined by a quantitative sensory evaluation test for the compound of the present invention (compounds of Examples 11 and 51).
The quantitative sensory evaluation test was performed as follows. Distilled water containing sodium chloride (0.8 g/dl) was mixed with capsazepine as a sample at 0.001 g/dl, or the compound of Example 11 or Example 51 at 0.0001 to 0.001 g/dl, and the level of a salty taste enhancing activity was measured. Distilled water containing 0.8 g/dl of sodium chloride was used as a control, and distilled water containing 0.9 g/dl or 1.0 g/dl of sodium chloride was used as a comparison target. Using a linear measurement method, a straight line showing 1.0-fold (0.8 g/dl), 1.13-fold (0.9 g/dl), 1.25-fold (1.0 g/dl) positions of sodium chloride concentration was drawn and the position showing the strength of the corresponding salty taste was put down thereon. As for the strength of a bitter taste, using the bitter taste of a solution obtained by mixing distilled water containing sodium chloride (0.8 g/dl) with capsazepine at 0.0001 to 0.001 g/dl as the standard, the strength of the bitter taste of the solution obtained by mixing the compound of Example 11 or Example 51 at 0.0001 to 0.001 g/dl was relatively evaluated by comparison. The points were marked based on 0 point for no bitter taste, and 5.0 points for the strength of the bitter taste of a solution containing 0.001 g/dl capsazepine. The test was performed at n=5. […] The “initial taste” means the evaluation of the strength of the salty taste for 2 seconds after placing in the mouth, and the “middle and after taste” means a combination of middle taste and after taste, which is the evaluation of the strength of the salty taste after 2 seconds from placing in the mouth.

The subject of assay [2] is human. The experiment in a line: Sensory evaluation of salty taste enhancing activity of capsazepine in human. The assay is classed as in vivo. As to conditions: for strength of salty taste middle and after taste: after 2 seconds; for strength of salty taste middle and after taste / strength of salty taste initial taste: relative to control; for strength of salty taste initial taste: first 2 seconds. How it is done: The presence or absence of a salty taste enhancing activity in human was examined by a quantitative sensory evaluation test for capsazepine having an ENaC activation to action.
The quantitative sensory evaluation test was performed as follows. Distilled water containing sodium chloride (0.8 g/dl) was mixed with capsazepine as a sample at 0.0001 to 0.001 g/dl, and the level of a salty taste enhancing activity was measured. Distilled water containing 0.8 g/dl of sodium chloride was used as a control, and distilled water containing 0.9 g/dl or 1.0 g/dl of sodium chloride was used as a comparison target. Using a linear measurement method, a straight line showing 1.0-fold (0.8 g/dl), 1.13-fold (0.9 g/dl), 1.25-fold (1.0 g/dl) positions of sodium chloride concentration was drawn and the position showing the strength of the corresponding salty taste was put down thereon. As for the sensory evaluation, an average of the positions put down by the panelists was determined, and an increase in the level of salty taste relative to the level of salty taste in the control was indicated as a salty taste enhancing rate (fold). […] The “initial taste” means the evaluation of the strength of the salty taste for 2 seconds after placing in the mouth, and the “middle and after taste” means a combination of middle taste and after taste, which is the evaluation of the strength of the salty taste after 2 seconds from placing in the mouth.

The mark [3] stands for this setting: sample 0.0001 g/dl in 0.8 g/dl sodium chloride.
Where [4] appears, read: sample 0.0005 g/dl in 0.8 g/dl sodium chloride.
Where [5] appears, read: sample 0.001 g/dl in 0.8 g/dl sodium chloride.

For the compound `Oc1cc2c(cc1O)CN(C(=S)NCCc1ccc(Cl)cc1)CCC2` [capsazepine], in assay [1] (setting [3]), the “salty taste enhancing rate (fold) middle and after taste” value was found to be 1.11 fold; the “salty taste enhancing rate (fold) initial taste” value turned out to be 1.11 fold. In addition, in assay [2] (setting [3]), the “strength of salty taste middle and after taste” value (“strength … after taste” below) was found to be 1.05 fold; the “strength of salty taste initial taste” value is 1.04 fold. In assay [2] (setting [4]), the “strength … after taste” value is given as 1.08 fold; the “strength of salty taste initial taste” value came to 1.11 fold. In assay [2] (setting [5]), the “strength … after taste” value worked out at 1.11 fold; the “strength of salty taste initial taste” value came out at 1.11 fold. Besides, the “salty taste enhancing activity in human” value in assay [2] (summary in words of Table 3) was “has a salty taste enhancing activity in human”.
With `C[C@@H](NC(=S)NCCc1ccccc1)c1ccccc1` [Example 11], the “salty taste enhancing rate (fold) middle and after taste” value in assay [1] (setting [3]) is 1.10 fold; in assay [1] (setting [4]) it was 1.14 fold; in assay [1] (setting [5]) it was 1.14 fold. For the same compound, the entries for the “salty taste enhancing rate (fold) initial taste” value in assay [1] (setting [3]), in assay [1] (setting [4]) and in assay [1] (setting [5]) were 1.10 fold, 1.15 fold and 1.13 fold, respectively.
In the case of `OC[C@@H](NC(=S)NCCc1ccccc1)c1ccccc1` [Example 51], the “salty taste enhancing rate (fold) middle and after taste” value in assay [1] (setting [3]) stood at 1.11 fold; in assay [1] (setting [4]), 1.17 fold; in assay [1] (setting [5]), 1.17 fold. Further, the figures for the “salty taste enhancing rate (fold) initial taste” value in assay [1] (setting [3]), in assay [1] (setting [4]) and in assay [1] (setting [5]) were 1.09 fold, 1.13 fold and 1.17 fold, respectively.

The values above are taken from patent US20140004243A1, “SALTY TASTE ENHANCER” (AJINOMOTO CO., INC., priority 2011, published 2014).
